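The compound was tested at five concentrations on cells cultured in 96-well plates, with a 48-hour exposure period. Abbreviation: GI50, concentration required for 50% inhibition of growth. The concentration for full growth arrest is given as TGI.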
Columns and labels:
Assay in all cases: DTP human tumour cell line panel, 48 h
[1] = test system: CCRF-CEM leukemia
[2] = test system: NCI-H226 lung
[3] = test system: RXF 393 renal
[4] = test system: OVCAR-8 ovarian
[5] = test system: NCI-H522 lung
[6] = test system: COLO 205 colon
[7] = test system: MALME-3M melanoma
[8] = test system: A549 NSCLC
[9] = test system: A498 renal
[10] = test system: SK-MEL-2 melanoma

| SMILES | GI50 [1] [µM] | TGI [1] [µM] | GI50 [2] [µM] | TGI [2] [µM] | GI50 [3] [µM] | TGI [3] [µM] | GI50 [4] [µM] | TGI [4] [µM] | GI50 [5] [µM] | TGI [5] [µM] | GI50 [6] [µM] | TGI [6] [µM] | GI50 [7] [µM] | TGI [7] [µM] | GI50 [8] [µM] | TGI [8] [µM] | GI50 [9] [µM] | TGI [9] [µM] | GI50 [10] [µM] | TGI [10] [µM] |
| --- | --- | --- | --- | --- | --- | --- | --- | --- | --- | --- | --- | --- | --- | --- | --- | --- | --- | --- | --- | --- |
| COc1ccc(C(=O)Nc2ncc(Cc3cccc(Cl)c3)s2)cc1OC | 0.626 | > 100 | 1.48 | > 100 | 1.07 | 6.54 | 1.56 | > 100 | 0.921 | > 100 | 0.222 | > 100 | 0.748 | > 100 | 0.631 | > 100 | 0.211 | 1.89 | 0.557 | > 100 |
| Cc1ccc(Cl)cc1Nc1nc(C(F)(F)F)ccc1C(=O)N/N=C/c1cccnc1 | 4.14 | > 100 | 2.38 | 12.4 | 1.36 | 7.5 | 3.05 | 15.1 | 6.64 | 22.5 | 4.86 | 17.7 | 1.27 | 8.27 | 3.32 | 12.4 | 2.95 | 11.7 | 3.74 | 15.3 |
| Nc1c(C(=O)c2ccc(-c3cccnc3)cc2)cnn1-c1ccc(F)cc1 | – | > 25 | > 16.2 | > 25 | 14.5 | > 25 | > 17.5 | > 25 | > 12.7 | > 23.1 | > 21.9 | > 25 | 11 | > 20.3 | > 14.4 | > 25 | > 18.8 | > 25 | > 25 | > 25 |
| CN1CCC(COc2cnc(-c3cccc(Cn4nc(-c5cccc(C#N)c5)ccc4=O)c3)nc2)CC1 | 2.56 | 19.6 | 7.18 | 24.8 | 1.49 | 3.08 | 3.27 | 12.8 | 2.27 | 5.06 | 1.92 | 3.68 | 1.83 | 3.63 | 3.52 | 14.7 | 7.2 | 20.6 | 6.66 | 15.1 |
| O=[N+]([O-])c1ccc(C2CC(c3ccccc3Cl)=Nc3ccccc3S2)cc1 (stereo not given) | – | 6.77 | – | 27.9 | – | 12.6 | – | 5.59 | – | 8.16 | – | > 57.6 | – | 24.9 | – | 33.4 | – | 17.4 | – | 24.5 |
| COC(=O)C1=Cc2cc(OC)c(OC)c(OC)c2[C@H](c2cc(OC)c(OC)c(OC)c2)C1C(=O)OC (stereo not given in full) | – | > 100 | – | > 100 | – | > 100 | – | > 100 | – | > 100 | – | > 100 | – | > 100 | – | > 100 | – | > 100 | – | – |
| CSC1=Nc2c(c(C)c(-c3ccccc3)n2CCCN2CCCCC2)C2=NC(=O)C[C@H](C)N12 | 2.68 | 10.2 | 4.5 | > 79.7 | 2.56 | 10.2 | 4.01 | > 55.7 | 2.55 | 9.78 | 1.51 | 2.95 | 2.63 | 9.61 | 3.57 | > 32.6 | 2.6 | 9.64 | 2.14 | 5.26 |
| N.N.NCCCCCN.O=C([O-])CCl.O=C([O-])CCl.O=C([O-])CCl.O=C([O-])CCl.[Pt+4].[Pt+4] | 1.71 | > 100 | 0.857 | 3.9 | 2.87 | 21.1 | 14 | > 100 | 3.3 | 73.8 | 1.78 | 8.45 | 11.9 | 39.2 | 3.03 | 30 | 11 | 31.2 | 35.8 | > 100 |
| CSc1ccc(-c2ccccc(=O)c2O)cc1 | 0.347 | > 100 | 1.68 | 37 | 0.976 | 16.2 | 0.39 | 64.8 | 0.47 | 55.9 | 1.98 | > 100 | 2.41 | > 100 | 0.896 | 83.8 | 2.71 | 19 | 0.966 | 31.4 |
| C[C@]12CC[C@@H]3c4cc(OC(F)F)c(O)cc4CC[C@H]3[C@@H]1CC[C@@H]2OS(N)(=O)=O | 0.393 | > 100 | 6.64 | 60.5 | 0.315 | 6.42 | 1.55 | 68.1 | 0.324 | 18.4 | 1.1 | > 40 | 0.348 | 27.4 | 0.968 | > 100 | 0.321 | 4.35 | 0.88 | 55.8 |
| Nc1nc2c(ncn2C2CCC(CO)O2)c(=O)n1C(=O)c1ccccc1 (stereo not given) | – | > 100 | – | > 100 | – | > 100 | – | > 100 | – | > 100 | – | > 100 | – | > 100 | – | > 100 | – | > 100 | – | > 100 |
| COc1ccc(/C=C(/C(=O)N2CCN(c3ccccc3)CC2)c2cc(OC)c(OC)c(OC)c2)cc1N | 0.301 | > 100 | 3.2 | > 100 | 0.272 | > 100 | 0.375 | > 100 | 0.242 | 0.91 | 0.362 | 2.43 | 12.2 | > 100 | 0.68 | > 100 | 0.142 | 0.778 | 0.725 | > 100 |
| CC[C@H]1CN2CCc3cc(OC)c(OC)cc3C2C[C@@H]1CC1NCCc2cc(OC)c(OC)cc21 (stereo not given in full) | 0.0186 | 0.204 | – | 0.194 | – | 0.131 | – | 0.18 | 0.0127 | 0.0354 | – | 0.017 | – | 0.222 | – | 0.0523 | – | 0.313 | – | 0.0542 |
| COc1ccc(OC(C)=O)c2c1CCC=CC2=O | – | 17.1 | – | 33.7 | – | 21.6 | – | 31.4 | – | 3.8 | – | 23 | – | 44.1 | – | 35.4 | – | 37.5 | – | 33.7 |

Reference: PubChem BioAssay (NCI)
